Legend:
Type in all cases: functional, cell-based
RKO = test: Cytotoxicity against human RKO cells after 24 hrs by MTT assay
LoVo = test: Cytotoxicity against human LoVo cells after 24 hrs by MTT assay
SW-620 = test: Cytotoxicity against human SW620 cells after 24 hrs by MTT assay; settings: SW-620, 24 h

SMILES | IC50 (RKO) [µM] | IC50 (LoVo) [µM] | IC50 (SW-620) [µM]
C=C(C)[C@@]12O[C@@]3(/C=C/C=C/C=C\CCC)O[C@@H]1[C@@H]1[C@@H]4O[C@]4(CO)[C@@H](O)[C@]4(O)C(=O)C(C)=C[C@H]4[C@@]1(O3)[C@H](C)[C@H]2OC(C)=O | > 10 | > 10 | > 10
C=C(C)[C@@]12O[C@@]3(c4ccccc4)O[C@@H]1[C@@H]1[C@H](O)[C@@](O)(CO)[C@@H](O)[C@]4(O)C(=O)C(C)=C[C@H]4[C@@]1(O3)[C@H](C)[C@H]2OC(=O)c1ccccc1 | > 10 | > 10 | > 10
C=C(C)[C@@]1(O)[C@H](O)[C@@H]2[C@@H]3O[C@]3(CO)[C@@H](O)[C@]3(O)C(=O)C(C)=C[C@H]3[C@@]2(O)[C@H](C)[C@H]1OC(C)=O | > 10 | > 10 | > 10
C=C(C)[C@@]12O[C@@]3(/C=C/C=C/C=C\CCC)O[C@@H]1[C@@H]1[C@@H]4O[C@]4(CO)[C@@H](O)[C@]4(O)C(=O)C(C)=C[C@H]4[C@@]1(O3)[C@H](C)[C@H]2OC(=O)c1ccccc1 | > 10 | > 10 | > 10
C=C(C)[C@@]12O[C@@]3(/C=C/C=C/CCCCC)O[C@@H]1[C@@H]1[C@@H]4O[C@]4(CO)[C@@H](O)[C@]4(O)C(=O)C(C)=C[C@H]4[C@@]1(O3)[C@H](C)[C@H]2OC(=O)CCC | 9.7 | – | 5.2
C=C(C)[C@@]1(O)[C@H](OC(=O)/C=C/C=C/CCCCC)[C@@H]2[C@H](O)[C@@](O)(CO)[C@@H](O)[C@]3(O)C(=O)C(C)=C[C@H]3[C@@]2(O)[C@H](C)[C@H]1OC(=O)c1ccccc1 | > 10 | > 10 | > 10
C=C(C)[C@@]12O[C@@]3(/C=C/C=C/CCCCC)O[C@@H]1[C@@H]1[C@@H]4O[C@]4(CO)[C@@H](O)[C@]4(O)C(=O)C(C)=C[C@H]4[C@@]1(O3)[C@H](C)[C@H]2OC(=O)C(C)C | > 10 | > 10 | > 10
C=C(C)[C@@]12O[C@@]3(c4ccccc4)O[C@@H]1[C@@H]1[C@@H]4O[C@]4(CO)[C@@H](O)[C@]4(O)C(=O)C(C)=C[C@H]4[C@@]1(O3)[C@H](C)[C@H]2OC(=O)CCC | > 10 | > 10 | > 10
C=C(C)[C@@]12O[C@@]3(c4ccccc4)O[C@@H]1[C@@H]1[C@@H]4O[C@]4(CO)[C@@H](O)[C@]4(O)C(=O)C(C)=C[C@H]4[C@@]1(O3)[C@H](C)[C@H]2OC(=O)C(C)C | > 10 | > 10 | > 10
O=c1[nH]cc(F)c(=O)[nH]1 [FLUOROURACIL] | > 10 | – | 10
C=C(C)[C@@]12O[C@@]3(/C=C/C=C\CCCCC)O[C@@H]1[C@@H]1[C@@H]4O[C@]4(CO)[C@@H](O)[C@]4(O)C(=O)C(C)=C[C@H]4[C@@]1(O3)[C@H](C)[C@H]2OC(C)=O | > 10 | > 10 | > 10
C=C(C)[C@@]12O[C@@]3(/C=C/C=C\CCCCC)O[C@@H]1[C@@H]1[C@@H]4O[C@]4(CO)[C@@H](O)[C@]4(O)C(=O)C(C)=C[C@H]4[C@@]1(O3)[C@H](C)[C@H]2OC(=O)c1ccccc1 | > 10 | – | 8.5
C=C(C)[C@@]12O[C@@]3(/C=C/C=C/CCCCC)O[C@@H]1[C@@H]1[C@@H]4O[C@]4(CO)[C@@H](O)[C@]4(O)C(=O)C(C)=C[C@H]4[C@@]1(O3)[C@H](C)[C@H]2OC(=O)CC | > 10 | > 10 | > 10
C=C(C)[C@@]1(O)[C@H](OC(=O)/C=C/C=C/C=C/CCC)[C@@H]2[C@@H]3O[C@]3(CO)[C@@H](O)[C@]3(O)C(=O)C(C)=C[C@H]3[C@@]2(O)[C@H](C)[C@H]1OC(C)=O | > 10 | > 10 | > 10
C=C(C)[C@@]1(O)[C@H](OC(=O)/C=C/C=C/CCCCC)[C@@H]2[C@@H]3O[C@]3(CO)[C@@H](O)[C@]3(O)C(=O)C(C)=C[C@H]3[C@@]2(O)[C@H](C)[C@H]1OC(C)=O | > 10 | > 10 | > 10
C=C(C)[C@@]12O[C@@]3(/C=C/C=C/CCCCC)O[C@@H]1[C@@H]1[C@@H]4O[C@]4(CO)[C@@H](O)[C@]4(O)C(=O)C(C)=C[C@H]4[C@@]1(O3)[C@H](C)[C@H]2OC(=O)c1ccccc1 [GNIDILATIDIN] | 6.5 | – | 4.3
C=C(C)[C@@]1(O)[C@H](OC(=O)/C=C/C=C/CCCCC)[C@@H]2[C@H](O)[C@@](O)(CO)[C@@H](O)[C@]3(O)C(=O)C(C)=C[C@H]3[C@@]2(O)[C@H](C)[C@H]1OC(C)=O | > 10 | > 10 | > 10
C=C(C)[C@@]1(O)[C@H](OC(=O)/C=C/C=C/CCCCC)[C@@H]2[C@@H]3O[C@]3(CO)[C@@H](O)[C@]3(O)C(=O)C(C)=C[C@H]3[C@@]2(O)[C@H](C)[C@H]1OC(=O)c1ccccc1 [YUANHUAOATE E] | > 10 | > 10 | > 10
C=C(C)[C@@]12O[C@@]3(/C=C/C=C/CCCCC)O[C@@H]1[C@@H]1[C@@H]4O[C@]4(CO)[C@@H](O)[C@]4(O)C(=O)C(C)=C[C@H]4[C@@]1(O3)[C@H](C)[C@H]2O | > 10 | > 10 | > 10
C=C(C)[C@@]12O[C@@]3(c4ccccc4)O[C@@H]1[C@@H]1[C@@H]4O[C@]4(CO)[C@@H](O)[C@]4(O)C(=O)C(C)=C[C@H]4[C@@]1(O3)[C@H](C)[C@H]2OC(C)=O | > 10 | > 10 | > 10
C=C(C)[C@@]12O[C@@]3(/C=C/C=C/CCCCC)O[C@@H]1[C@@H]1[C@@H]4O[C@]4(CO)[C@@H](O)[C@]4(O)C(=O)C(C)=C[C@H]4[C@@]1(O3)[C@H](C)[C@H]2OC(C)=O [YUANHUADINE] | > 10 | > 10 | > 10
C=C(C)[C@@]12O[C@@]3(c4ccccc4)O[C@@H]1[C@@H]1[C@@H]4O[C@]4(CO)[C@@H](O)[C@]4(O)C(=O)C(C)=C[C@H]4[C@@]1(O3)[C@H](C)[C@H]2OC(=O)c1ccccc1 | > 10 | > 10 | > 10

From ChEMBL document CHEMBL4610097, “Daphnane Diterpenoids from Daphne genkwa Inhibit PI3K/Akt/mTOR Signaling and Induce Cell Cycle Arrest and Apoptosis in Human Colon Cancer Cells” (J Nat Prod, 2020)
